Reference: patent publication US9260504B2, “N- and C-terminal substituted antagonistic analogs of GH-RH” (University of Miami, priority 2008, dated 2016)

Key:
Assay type in all cases: in vivo
[1] = system: Human ovarian cancer SKOV3 cells; test: SKOV3 ovarian cancer xenografts in nude mice; conditions: 5 μg/day s.c.
From the text: Human ovarian cancer SKOV3 cells growing exponentially were implanted info five female nude mice by subcutaneous (s.c.) injection of 10^7 cells in both flanks. Tumors That resulted after approximately 4 weeks in donor animals were then aseptically dissected and mechanically minced. Three mm^3 pieces of tumor tissue were transplanted subcutaneously into experimental animals with a trocar needle. When tumors reached an appropriate size (approximately 50 mm^3), mice were randomly divided into […]. The first was the control group, the second group was treated with daily s.c. injections of 5 μg P-11313, the third group was treated with daily s.c. injections of 5 μg P-11604, the fourth group was treated with daily s.c. injections of 5 μg P-11610. Tumor volume (length×width×height×0.5236) was measured every week and mean tumor volumes of each group were compared by Student's t-test. The study lasted 49 days. One week after end of treatment, mice were killed under anesthesia, tumors were snap frozen and stored at −70° C.

[2] = system: HT human diffuse mixed B cell lymphoma cell line; test: HT human diffuse mixed B cell lymphoma xenografts in nude mice; conditions: 5 μg/day s.c.
Method: The aim of this study was to find out the tumor inhibitor effect of the latest GHRH antagonists (Peptide 11602, Peptide 11604, Peptide 11606, and Peptide 11610) at the dose of 5 μg/day on HT human diffuse mixed B cell lymphoma cell line. Female nude mice were xenografted subcutaneously with approximately 3 mm^3 pieces of HT malignant tumor tissue. When tumors reached the mean volume of approximately 120 mm^3, the animals were randomly assigned into different groups. Tumor volumes and body weight were measured once a week. At the end of the experiment mice were anesthetized and sacrificed. Tumors were carefully excised, weighed and were stored at −80° C. until further investigation. Organs and tumor samples were preserved in 10% formaldehyde.

[3] = system: PC-3 human hormone-independent prostate cancer; test: PC3 androgen-independent prostate cancer xenografts in nude mice (Example XIV)
Method: Male nude mice were implanted s.c. with 3 mm^3 pieces of PC-3 human hormone-independent prostate cancer tissue on both flanks. When tumors reached a volume of approximately 50 mm^3, the mice were divided into 8 experimental groups with 8 to 10 animals in each group and received single daily injections for 28 days as follows: 1. Control (vehicle solution); 2. P-11513 2 μg/day; 3. P-11602 2 μg/day; 4. P-11602 1 μg/day; 5. P-11604 2 μg/day; 6. P-11606 2 μg/day; 7. P-11610 2 μg/day; 8. P-11610 1 μg/day.
Tumor volumes were measured once a week. The experiment was ended on day 28 by sacrificing the mice under Isoflurane anesthesia. Resulting tumors were cleaned, weighed, and snap-frozen until further analyses. Statistical analyses of the measurement results were done by two-tailed t-test, p<0.05 being considered significant.

[4] = system: H460 human non-small cell lung cancer cell line; test: H460 human non-small cell lung cancer xenografts in nude mice (Example XV); conditions: 5 μg/day s.c.
From the text: The aim of this study was to find out the tumor inhibitor effect of the latest GHRH antagonists (Peptide 11423, Peptide 11602, Peptide 11604, Peptide 11606) on H460 human non-small cell lung cancer cell line. Female nude mice were xenografted subcutaneously with approximately 3 mm^3 pieces of H460 human non-small cell lung cancer malignant tumor tissue. When tumors reached the mean volume of approximately 90 mm^3, the animals was randomly assigned into different groups. Tumor volumes and body weight were measured once a week. At the end of the experiment mice were anesthetized and sacrificed. Tumors were carefully excised, weighed and were stored at −80° C. until further investigation. Organs and tumor samples were preserved in 10% formaldehyde.

[(PhAc-Ada)^0-Tyr^1, D-Arg^2, (Phe(F)5)^6, Ala^8, Har^9, Tyr(Me)^10, His^11, Orn^12, Abu^15, His^20, Orn^21, Nle^27, D-Arg^28, Har^29, Agm^30]hGH-RH(1-29) [Peptide 11604]
TU growth (%) ([1]; day 0 (baseline)): 100% | TU growth (%) ([1]; day 7): 144.55% | TU inhibition (%) ([1]; day 7): 32.57% | TU growth (%) ([1]; day 14): 174.5% | TU inhibition (%) ([1]; day 14): 37.73% | TU growth (%) ([1]; day 21): 179.5% | TU inhibition (%) ([1]; day 21): 66.97% | TU growth (%) ([1]; day 28): 167.5% | TU inhibition (%) ([1]; day 28): 80.12% | TU growth (%) ([1]; day 35): 182.88% | TU inhibition (%) ([1]; day 35): 79.52% | TU growth (%) ([1]; day 42): 397.95% | TU inhibition (%) ([1]; day 42): 67.80% | TU growth (%) ([1]; day 49): 309.96% | TU inhibition (%) ([1]; day 49): 75.63% | TUMOR GROWTH (%) ([2]; day 1 (baseline)): 100% | Tumor inhibition (%) ([2]; day 1 (baseline)): 0% | Tumor volume (mm^3) ([2]; day 1 (baseline)): 125.04 mm^3 | TUMOR GROWTH (%) ([2]; day 7): 129.89% | Tumor inhibition (%) ([2]; day 7): 57.53% | Tumor volume (mm^3) ([2]; day 7): 165.21 mm^3 | TUMOR GROWTH (%) ([2]; day 14): 175.7% | Tumor inhibition (%) ([2]; day 14): 63.61% | Tumor volume (mm^3) ([2]; day 14): 231.44 mm^3 | TUMOR GROWTH (%) ([2]; day 21): 271.36% | Tumor inhibition (%) ([2]; day 21): 65.27% | Tumor volume (mm^3) ([2]; day 21): 563.86 mm^3 | TUMOR GROWTH (%) ([2]; day 28): 338.41% | Tumor inhibition (%) ([2]; day 28): 62.25% | Tumor volume (mm^3) ([2]; day 28): 818.2 mm^3 | TUMOR GROWTH (%) ([3]; 2 μg/day, day 0 (baseline)): 100% | TUMOR GROWTH (%) ([3]; 2 μg/day, day 7): 159.84% | Tumor inhibition (%) ([3]; 2 μg/day, day 7): 51.75% | TUMOR GROWTH (%) ([3]; 2 μg/day, day 14): 199.57% | Tumor inhibition (%) ([3]; 2 μg/day, day 14): 66.23% | TUMOR GROWTH (%) ([3]; 2 μg/day, day 21): 316.88% | Tumor inhibition (%) ([3]; 2 μg/day, day 21): 73.37% | TUMOR GROWTH (%) ([3]; 2 μg/day, day 28): 383.97% | Tumor inhibition (%) ([3]; 2 μg/day, day 28): 79.33% | TUMOR GROWTH (%) ([4]; day 1 (baseline)): 100.00% | TUMOR GROWTH (%) ([4]; day 7): 341.87% | Tumor inhibition (%) ([4]; day 7): 35.48% | TUMOR GROWTH (%) ([4]; day 14): 609.38% | Tumor inhibition (%) ([4]; day 14): 55.93% | TUMOR GROWTH (%) ([4]; day 21): 1006.40% | Tumor inhibition (%) ([4]; day 21): 59.24% | TUMOR GROWTH (%) ([4]; day 28): 1595.34% | Tumor inhibition (%) ([4]; day 28): 61.08%

[(PhAc-Ada)^0-Tyr^1, D-Arg^2, (Phe(F)5)^6, Ala^8, Har^9, Tyr(Me)^10, His^11, Orn^12, Abu^15, His^20, Orn^21, Nle^27, D-Arg^28, Har^29]hGH-RH(1-29)NH2 [Peptide 11602]
TUMOR GROWTH (%) ([2]; day 1 (baseline)): 100% | Tumor inhibition (%) ([2]; day 1 (baseline)): 0% | Tumor volume (mm^3) ([2]; day 1 (baseline)): 194.81 mm^3 | TUMOR GROWTH (%) ([2]; day 7): 192.86% | Tumor inhibition (%) ([2]; day 7): 36.94% | Tumor volume (mm^3) ([2]; day 7): 260.13 mm^3 | TUMOR GROWTH (%) ([2]; day 14): 281.4% | Tumor inhibition (%) ([2]; day 14): 41.71% | Tumor volume (mm^3) ([2]; day 14): 311.76 mm^3 | TUMOR GROWTH (%) ([2]; day 21): 462.45% | Tumor inhibition (%) ([2]; day 21): 40.82% | Tumor volume (mm^3) ([2]; day 21): 332.67 mm^3 | TUMOR GROWTH (%) ([2]; day 28): 608.23% | Tumor inhibition (%) ([2]; day 28): 32.15% | Tumor volume (mm^3) ([2]; day 28): 509.24 mm^3 | TUMOR GROWTH (%) ([3]; 1 μg/day, day 0 (baseline)): 100% | TUMOR GROWTH (%) ([3]; 1 μg/day, day 7): 249.81% | Tumor inhibition (%) ([3]; 1 μg/day, day 7): 24.59% | TUMOR GROWTH (%) ([3]; 1 μg/day, day 14): 295.25% | Tumor inhibition (%) ([3]; 1 μg/day, day 14): 50.04% | TUMOR GROWTH (%) ([3]; 1 μg/day, day 21): 467.74% | Tumor inhibition (%) ([3]; 1 μg/day, day 21): 60.70% | TUMOR GROWTH (%) ([3]; 1 μg/day, day 28): 740.06% | Tumor inhibition (%) ([3]; 1 μg/day, day 28): 60.15% | TUMOR GROWTH (%) ([3]; 2 μg/day, day 0 (baseline)): 100% | TUMOR GROWTH (%) ([3]; 2 μg/day, day 7): 197.77% | Tumor inhibition (%) ([3]; 2 μg/day, day 7): 40.30% | TUMOR GROWTH (%) ([3]; 2 μg/day, day 14): 270.61% | Tumor inhibition (%) ([3]; 2 μg/day, day 14): 54.21% | TUMOR GROWTH (%) ([3]; 2 μg/day, day 21): 449.82% | Tumor inhibition (%) ([3]; 2 μg/day, day 21): 62.20% | TUMOR GROWTH (%) ([3]; 2 μg/day, day 28): 641.31% | Tumor inhibition (%) ([3]; 2 μg/day, day 28): 65.47% | TUMOR GROWTH (%) ([4]; day 1 (baseline)): 100.00% | TUMOR GROWTH (%) ([4]; day 7): 247.89% | Tumor inhibition (%) ([4]; day 7): 53.21% | TUMOR GROWTH (%) ([4]; day 14): 504.42% | Tumor inhibition (%) ([4]; day 14): 63.52% | TUMOR GROWTH (%) ([4]; day 21): 864.16% | Tumor inhibition (%) ([4]; day 21): 65.00% | TUMOR GROWTH (%) ([4]; day 28): 2575.35% | Tumor inhibition (%) ([4]; day 28): 37.18%

[(PhAc^0-Ada)-Tyr^1, D-Arg^2, (Phe(F)5)^6, (Me-Ala)^8, Har^9, Tyr(Me)^10, His^11, Orn^12, Abu^15, His^20, Orn^21, Nle^27, D-Arg^28, Har^29, Agm^30]hGH-RH(1-29) [Peptide 11606]
TUMOR GROWTH (%) ([2]; day 1 (baseline)): 100% | Tumor inhibition (%) ([2]; day 1 (baseline)): 0% | Tumor volume (mm^3) ([2]; day 1 (baseline)): 128.49 mm^3 | TUMOR GROWTH (%) ([2]; day 7): 209.74% | Tumor inhibition (%) ([2]; day 7): 31.38% | Tumor volume (mm^3) ([2]; day 7): 223.02 mm^3 | TUMOR GROWTH (%) ([2]; day 14): 352.2% | Tumor inhibition (%) ([2]; day 14): 27.05% | Tumor volume (mm^3) ([2]; day 14): 341.77 mm^3 | TUMOR GROWTH (%) ([2]; day 21): 453.71% | Tumor inhibition (%) ([2]; day 21): 41.94% | Tumor volume (mm^3) ([2]; day 21): 510.24 mm^3 | TUMOR GROWTH (%) ([2]; day 28): 660.24% | Tumor inhibition (%) ([2]; day 28): 26.35% | Tumor volume (mm^3) ([2]; day 28): 716.13 mm^3 | TUMOR GROWTH (%) ([3]; 2 μg/day, day 0 (baseline)): 100% | TUMOR GROWTH (%) ([3]; 2 μg/day, day 7): 145.65% | Tumor inhibition (%) ([3]; 2 μg/day, day 7): 56.03% | TUMOR GROWTH (%) ([3]; 2 μg/day, day 14): 307.66% | Tumor inhibition (%) ([3]; 2 μg/day, day 14): 47.94% | TUMOR GROWTH (%) ([3]; 2 μg/day, day 21): 521.69% | Tumor inhibition (%) ([3]; 2 μg/day, day 21): 56.16% | TUMOR GROWTH (%) ([3]; 2 μg/day, day 28): 709.50% | Tumor inhibition (%) ([3]; 2 μg/day, day 28): 61.80% | TUMOR GROWTH (%) ([4]; day 1 (baseline)): 100.00% | TUMOR GROWTH (%) ([4]; day 7): 221.26% | Tumor inhibition (%) ([4]; day 7): 58.24% | TUMOR GROWTH (%) ([4]; day 14): 494.68% | Tumor inhibition (%) ([4]; day 14): 64.22% | TUMOR GROWTH (%) ([4]; day 21): 933.19% | Tumor inhibition (%) ([4]; day 21): 62.20% | TUMOR GROWTH (%) ([4]; day 28): 1482.03% | Tumor inhibition (%) ([4]; day 28): 63.85%
